Columns and labels:
[1] = target: T1, Sodium-dependent dopamine transporter (Rattus norvegicus, UniProt P23977); assay: Inhibitory constant towards reuptake of [125I]-12 from dopamine transporter in rat striatal membranes; format: cell membranes, Membrane
[2] = target: T1, Sodium-dependent dopamine transporter; assay: Inhibitory constant towards reuptake of [125I]-13 from dopamine transporter in rat striatal membranes; format: cell membranes, Membrane

T1 sequence (P23977 whole entry): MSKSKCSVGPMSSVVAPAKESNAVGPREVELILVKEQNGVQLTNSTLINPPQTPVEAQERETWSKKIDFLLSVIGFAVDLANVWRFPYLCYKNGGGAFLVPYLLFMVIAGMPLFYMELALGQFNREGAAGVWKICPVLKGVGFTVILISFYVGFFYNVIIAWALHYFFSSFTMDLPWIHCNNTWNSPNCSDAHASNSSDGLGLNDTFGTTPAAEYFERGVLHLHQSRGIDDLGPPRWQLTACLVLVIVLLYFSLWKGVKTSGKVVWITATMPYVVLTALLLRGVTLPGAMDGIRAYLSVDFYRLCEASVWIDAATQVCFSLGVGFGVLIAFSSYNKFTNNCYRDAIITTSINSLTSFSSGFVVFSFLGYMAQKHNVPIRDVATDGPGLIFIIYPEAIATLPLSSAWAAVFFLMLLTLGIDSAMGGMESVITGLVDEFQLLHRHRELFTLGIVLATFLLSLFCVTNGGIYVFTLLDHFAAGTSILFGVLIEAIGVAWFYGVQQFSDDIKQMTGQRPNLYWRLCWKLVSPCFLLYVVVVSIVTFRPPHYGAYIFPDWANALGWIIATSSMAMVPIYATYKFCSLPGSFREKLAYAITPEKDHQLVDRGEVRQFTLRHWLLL

With OC1(c2ccc(Cl)cc2)c2ccccc2C2=NCCN21 (configuration not stated) [MAZINDOL] the Ki [1] was 32 nM and the Ki [2] was 41.6 nM.

— ChEMBL document CHEMBL1127517 (J Med Chem, 1994)
